Data: PMC11391413 (Chemical Science, 2024)
No end group written: not given here.

Each compound was assayed against NSH3 domain of full-length GRB2 (Homo sapiens, UniProt P62993) (assay: NMR titration (1H-15N HSQC chemical shift perturbation) of 15N-labelled full-length GRB2 with SOS1 PRMs, KD1). Details: read-out: K D (μM) from full-length GRB2, K D1 (NSH3), global fit of residues with maximum CSPs over 0.03 ppm, independent two-site binding model, GRB2 approx. 200 to 270 μM, 20 mM sodium phosphate, 25 °C, bootstrap 1000 iterations.
Procedure: Models with two binding sites basically require a total of four dissociation constants (KD1–KD4). The two-site independent binding model equates KD3 and KD4 with KD2 and KD1, respectively. In contrast, the two-site cooperative binding model (two-site dependent model) differentiates the four dissociation constants, with the assumption that KD3 is modulated by another ligand binding to KD2, as a function of KD2 and a modulation factor α. KD4 is then calculated from KD1 and KD2, as shown in the equation provided in the figure (the detailed models and theory are described in Materials and methods). […] The calculations were performed using only residues showing the maximum CSPs over 0.03 ppm.
2D ^1H–^15N HSQC spectra were measured at each titration point. Chemical shift differences, Δ, were analysed by Δ = ((ΔH)^2 + (ΔN/5)^2)^1/2, where ΔH and ΔN are the differences in ppm for the backbone amide ^1H and ^15N chemical shifts between the two conditions. 1 ppm corresponds to 600.13 Hz for ^1H and 60.81 Hz for ^15N.
The dissociation constants for each residue were calculated by non-linear regression analysis with the equation for the single state model:[33] […]
In all models, the non-linear least-squares fitting was performed by the Levenberg–Marquardt algorithm. The precision of the model parameters was assessed by conducting the bootstrap resampling on the residuals of the regression model. […]

Kd [µM]	Compound
483 ± 45.7	CC(C)C[C@H](NC(=O)[C@H](CCCCN)NC(=O)[C@@H]1CCCN1)C(=O)N1CCC[C@H]1C(=O)N1CCC[C@H]1C(=O)N[C@@H](CCCCN)C(=O)N[C@H](C(=O)N[C@@H](Cc1ccc(O)cc1)C(=O)N[C@@H](CCCCN)C(=O)N[C@@H](CCCNC(=N)N)C(=O)N[C@@H](CCC(=O)O)C(=O)N[C@@H](Cc1c[nH]cn1)C(=O)O)[C@@H](C)O [S10]

These compounds were tested against T1, full-length GRB2, KD1 (NSH3) (Homo sapiens, UniProt P62993) (assay: ITC of full-length GRB2 with SOS1 PRMs, KD1). Details: not given.
T1 construct: further corroborated by our ITC analysis of the full-length GRB2; His6 (N, cleaved yes); TEV protease cleavage site (N, cleaved yes); made in house; host or cells: Escherichia coli BL21 (DE3) pLysS
Format: binding

Kd [µM]	Compound
15.9 ± 1.5	DSPPAIPPRQPT [S5]
35.6 ± 4.2	IAGPPVPPRQST [S9]
40.1 ± 6.5	ESPPLLPPREPV [S6]
71.5 ± 24.2	CC(C)C[C@H](NC(=O)[C@H](CCCCN)NC(=O)[C@@H]1CCCN1)C(=O)N1CCC[C@H]1C(=O)N1CCC[C@H]1C(=O)N[C@@H](CCCCN)C(=O)N[C@H](C(=O)N[C@@H](Cc1ccc(O)cc1)C(=O)N[C@@H](CCCCN)C(=O)N[C@@H](CCCNC(=N)N)C(=O)N[C@@H](CCC(=O)O)C(=O)N[C@@H](Cc1c[nH]cn1)C(=O)O)[C@@H](C)O [S10]
65.1 ± 23.7	PKPLPRFPKK [S2]
123 ± 18.6	PSPHGTRRHLPSPP [S8]
